pIC50: −log10 of the molar value.
How the values were obtained:
Jurkat E6-1 cells [1] = experiment: fluorescent calcium flux assay (FLIPR, thapsigargin store depletion); type: cell-based; settings: Homo sapiens, Thapsigargin 10µM, 2mM final calcium concentration, FLIPR Calcium 5 dye, read-out: Ca^2+ flux IC50
Procedure: fluorescent calcium flux assay
Jurkat E6-1 cells were obtained from ATCC (number TIB-152™) and maintained as ATCC recommend; in medium RPMI-1640 with 10% FBS at 37°C and 5% CO2.
Before the assay, Jurkat cells were grown at a density of 2 millions cells/ml in cell culture media (RPMI with 10% FBS) in a T-175 flask at 37°C and 5% CO2. The day of the assay, cells were harvested by centrifugation (5 minutes at 1500 rpm) and the pellet were suspended in Ca^2+ free assay buffer (HBSS w/o Ca^2+ and Mg^2+, 20mM Hepes and 1 mM MgCl2, pH 7.4) at a density of 5 million cells/ml.
Calcium depletion was initiated by the addition to the cell suspension of Thapsigarguin at a final assay concentration of 10µM. 20µl of the cellular suspension containing Thapsigargin (100.000 cells/well) were plated into 384 well plates (corning 3711) and incubated at RT for 15 minutes.
Test compounds were diluted in DMSO 100% to get a 10^-2M stock solution and serial dilutions 1/3 were performed in the same solvent. Then, 20µl of test compounds, diluted 75 times in Ca^2+ free assay buffer, were added to the cells and incubated at RT for 1h.
Once this incubation was completed, 5 µl of dye solution (FLIPR Calcium 5 Express Kit, Molecular Devices), prepared as Molecular Devices recommend, were added into the assay plates followed by an extra incubation period of 1 hour at room temperature. After the second incubation period, assay plates were placed into the FLIPR Tetra from Molecular Devices. Fluorescence was measured at a wavelength of 525nm after the dye excitation at 485nm. The initial baseline was measured during 20 seconds, and then 8µl of a 13mM Calcium solution in assay buffer were added (2mM final calcium concentration) except for basal wells, where assay buffer without calcium was added. At this time, changes in the cellular fluorescent were measured for an extra 80 seconds.
Peak and base line were taken for the calculation of the ratio (Peak/Base Line). Total, basal and compound well ratio values were used to calculate %Inhibition.

Jurkat E6-1 cells [2] = experiment: In vitro assay of cytokine release from T cells (IL-2 ELISA); type: cell-based; settings: Homo sapiens, Jurkat cells stimulated with PHA 20 µg/ml, 20 hours, secreted IL-2 by ELISA, read-out: Jurkat IL2 IC50
Procedure: In vitro assay of cytokine release from T cells
Jurkat E6-1 cells were obtained from American Type Culture Collection (ATCC) and maintained in complete medium with 10% fetal bovine serum (FBS) at 37°C/5%CO2. Cells were plated in 100 µL of Dubelcco's Modified Eagle Medium (DMEM) with 1% FBS in a 96 well plate at a density of 1x10^6 cells/well and 50 µL of test compound was added. Cells were then stimulated by the addition of 50 µL of phytohemagglutinin (PHA) (final concentration 20 µg/ml) and incubated at 37°C/5%CO2 for 20 hours. On the following day, the supernatants were collected and assayed for IL-2 levels by ELISA according to the manufacturer's protocols. The IC50 value was calculated as the concentration at which 50% of secreted IL-2 in vehicle is inhibited.

`COc1cc(C)c(-c2cnc3[nH]c(-c4c(F)cc(OCCCO)cc4F)cc3c2)cn1` [Ex. 9, 3-{3,5-difluoro-4-[5-(6-methoxy-4-methylpyridin-3-yl)-1H-pyrrolo[2,3-b]pyridin-2-yl]phenoxy}propan-1-ol] was tested, and the pIC50 (Jurkat E6-1 cells [1]) was 6.43 and the pIC50 (Jurkat E6-1 cells [2]) was 6.68.

With `Cn1nc(C(F)(F)F)cc1-c1ccc2[nH]c(C3CCCCC3)cc2n1` [Ex. 16, 2-Cyclohexyl-5-[1-methyl-3-(trifluoromethyl)-1H-pyrazol-5-yl]-1H-pyrrolo[3,2-b]pyridine] the pIC50 (Jurkat E6-1 cells [1]) was 6.41 and the pIC50 (Jurkat E6-1 cells [2]) was 6.89.

With `Cn1nc(C(F)(F)F)cc1-c1ccc2[nH]c(-c3c(F)cccc3Cl)cc2n1` [Ex. 14, 2-(2-Chloro-6-fluorophenyl)-5-[1-methyl-3-(trifluoromethyl)-1H-pyrazol-5-yl]-1H-pyrrolo[3,2-b]pyridine] the pIC50 (Jurkat E6-1 cells [1]) was 7.28 and the pIC50 (Jurkat E6-1 cells [2]) was 7.44.

`FC(F)Oc1cc(C(F)(F)F)nn1-c1ccc2[nH]c(C3CCCCC3)cc2n1` [Ex. 30, 2-Cyclohexyl-5-[5-(difluoromethoxy)-3-(trifluoromethyl)-1H-pyrazol-1-yl]-1H-pyrrolo[3,2-b]pyridine] gave a pIC50 (Jurkat E6-1 cells [1]) of 6.44 and a pIC50 (Jurkat E6-1 cells [2]) of 6.96.

`Fc1cccc(Cl)c1-c1cc2cc(-c3cc4c(cc3Cl)OC(F)(F)O4)cnc2[nH]1` [Ex. 13, 5-(6-Chloro-2,2-difluoro-1,3-benzodioxol-5-yl)-2-(2-chloro-6-fluorophenyl)-1H-pyrrolo[2,3-b]pyridine] showed a pIC50 (Jurkat E6-1 cells [1]) of 6.92 and a pIC50 (Jurkat E6-1 cells [2]) of 7.25.

For `Cc1cc(S(=O)(=O)N(C)C)ccc1-c1cnc2[nH]c(-c3c(F)cccc3Cl)cc2n1` [Ex. 8, 4-[6-(2-chloro-6-fluorophenyl)-5H-pyrrolo[2,3-b]pyrazin-2-yl]-N,N,3-trimethylbenzenesulfonamide], the pIC50 (Jurkat E6-1 cells [1]) was 6.10 and the pIC50 (Jurkat E6-1 cells [2]) was 7.39.

`Cn1nc(C(F)(F)F)cc1-c1cc2cc(-c3c(F)cccc3Cl)[nH]c2cn1` gave a pIC50 (Jurkat E6-1 cells [1]) of 6.19 and a pIC50 (Jurkat E6-1 cells [2]) of 6.07.

`CNS(=O)(=O)c1ccc(-c2cnc3[nH]c(-c4c(F)cccc4Cl)cc3n2)c(C)c1` [Ex. 69, 4-(6-(2-Chloro-6-fluorophenyl)-5H-pyrrolo[2,3-b]pyrazin-2-yl)-N,3-dimethylbenzenesulfonamide] showed a pIC50 (Jurkat E6-1 cells [1]) of 6.24 and a pIC50 (Jurkat E6-1 cells [2]) of 6.94.

In the case of `COc1cc(C)c(-c2cnc3[nH]c(-c4c(F)cccc4Cl)cc3n2)cn1` [Ex. 2, 6-(2-Chloro-6-fluorophenyl)-2-(6-methoxy-4-methylpyridin-3-yl)-5H-pyrrolo[2,3-b]pyrazine], the pIC50 (Jurkat E6-1 cells [1]) was 6.45 and the pIC50 (Jurkat E6-1 cells [2]) was 7.00.

`Cc1nc2cc(Cl)c(-c3cnc4[nH]c(-c5c(F)cccc5Cl)cc4c3)cc2o1` [Ex. 73, 5-Chloro-6-(2-(2-chloro-6-fluorophenyl)-1H-pyrrolo[2,3-b]pyridin-5-yl)-2-methylbenzo[d]oxazole] showed a pIC50 (Jurkat E6-1 cells [1]) of 7.06 and a pIC50 (Jurkat E6-1 cells [2]) of 6.93.

For `COc1cc(C)c(-c2cnc3[nH]c(-c4c(F)cccc4Cl)cc3c2)cn1` [Ex. 1, 2-(2-Chloro-6-fluorophenyl)-5-(6-methoxy-4-methylpyridin-3-yl)-1H-pyrrolo[2,3-b]pyridine], the pIC50 (Jurkat E6-1 cells [1]) was 7.15 and the pIC50 (Jurkat E6-1 cells [2]) was 7.40.
